Values after ≈ are worked out from the molar mass of the structure shown. “Also recorded” adds a separate entry of the source. Read-outs that look alike come from different tables or passages of the source.
What was measured:
K. pneumoniae ATCC 27736 = test: MIC determination; assay type: cell-based; settings: Klebsiella pneumoniae, ATCC27736; Table 5; Mueller-Hinton medium; F = K. pneumoniae ATCC 27736; read-out: MIC strain F
P. aeruginosa ATCC 27853 = test: MIC determination; assay type: cell-based; settings: Pseudomonas aeruginosa, ATCC27853; Table 5; Mueller-Hinton medium; G = P. aeruginosa ATCC 27853; read-out: MIC strain G
B. anthracis Sterne F32 = test: microbe, parasite or virus in culture; assay type: cell-based; settings: Bacillus anthracis
S. enterica ATCC 14028 = test: MIC determination; assay type: cell-based; settings: Salmonella enterica, ATCC14028
E. cloacae ATCC 13047 = test: MIC determination; assay type: cell-based; settings: Enterobacter cloacae, ATCC13047
[1] = test system: S. epidermidis ATCC 12228; test: MIC determination; assay type: cell-based; settings: Staphylococcus epidermidis, ATCC12228
S. aureus ATCC 25923 = test: MIC determination; assay type: cell-based; settings: Staphylococcus aureus, ATCC25923
Y. pestis CO92 = test: microbe, parasite or virus in culture; assay type: cell-based; settings: Yersinia pestis, CO92, read-out: MIC Y. pestis CO92
M. smegmatis = test: MIC determination; assay type: cell-based, Mycobacterium smegmatis; settings: Mycolicibacterium smegmatis; Table 4
E. coli MC1061 = test: MIC determination; assay type: cell-based; settings: Escherichia coli; Table 5; Mueller-Hinton medium; D = E. coli MC1061; read-out: MIC strain D
Ab ATCC 19606 [2] = test: Development of resistance, 15-passage MIC assay; assay type: cell-based, Acinetobacter baumannii; settings: 15 passages at ½×MIC
Ab ATCC 19606 [3] = test: Time-kill curves; settings: 1×MIC and 4×MIC, up to 24 h
[4] = test system: human embryonic kidney cells (HEK-293); test: Mammalian cytotoxicity assay (resazurin); settings: HEK-293, 32 μg/mL (printed 32 g/mL for 3e), 24 h
[5] = test system: biofilm formed by Ab ATCC 19606; test: Biofilm prevention assay (crystal violet); settings: compound added while biofilm is forming
[6] = test system: preformed biofilm of Ab ATCC 19606; test: Biofilm disruption assay (crystal violet); settings: compound added after formation of biofilm

For `O=C(NNc1ccc(Cl)cc1)c1ccc(F)cn1` [Compound 3e], the MIC (K. pneumoniae ATCC 27736) was 64 µg/mL (≈ 241 µM), the MIC (P. aeruginosa ATCC 27853) was > 64 µg/mL and the MIC (B. anthracis Sterne F32; STERNEF32, read-out: MIC B. anthracis Sterne F32) was > 16 µg/mL. The MIC (B. anthracis Sterne F32; STERNEF32, read-out: MIC strain A) was > 64 µg/mL, the MIC (S. enterica ATCC 14028; Table 4, read-out: MIC S. enterica ATCC 14028) was 8 µg/mL (≈ 30.1 µM) and the MIC (S. enterica ATCC 14028; Table 5, Mueller-Hinton medium, H = S. enterica ATCC 14028, read-out: MIC strain H) was 64 µg/mL (≈ 241 µM). For the same molecule, the MIC (E. cloacae ATCC 13047; Table 4, read-out: MIC E. cloacae ATCC 13047) was 4 µg/mL (≈ 15.1 µM), the MIC (E. cloacae ATCC 13047; Table 5, Mueller-Hinton medium, E = E. cloacae ATCC 13047, read-out: MIC strain E) was 16 µg/mL (≈ 60.2 µM) and the MIC ([1]; Table 4, read-out: MIC S. epidermidis ATCC 12228) was > 16 µg/mL. The MIC ([1]; Table 5, Mueller-Hinton medium, C = S. epidermidis ATCC 12228, read-out: MIC strain C) was > 64 µg/mL, the MIC (S. aureus ATCC 25923; Table 4, read-out: MIC S. Aureus ATCC 25923) was > 16 µg/mL and the MIC (S. aureus ATCC 25923; Table 5, Mueller-Hinton medium, B = S. aureus ATCC 25923, read-out: MIC strain B) was > 64 µg/mL. It also gave an MIC (Y. pestis CO92) of 8 µg/mL (≈ 30.1 µM), an MIC (M. smegmatis) of 4 µg/mL (≈ 15.1 µM) and an MIC (E. coli MC1061) of 16 µg/mL (≈ 60.2 µM). For the same molecule, the “emergence of resistance (in words)” value (Ab ATCC 19606 [2]) was “not observed even after 15 passages; also recorded: Lack of resistance”, the “bacteriostatic or bactericidal (time-kill)” value (Ab ATCC 19606 [3]) was “bacteriostatic” and the inhibition of growth [4] was 17%. For the same molecule, the “effect on biofilm formation (prevention)” value [5] was “biofilm formation was abolished at concentrations above MIC; also recorded: inhibited biofilm formation” and the “effect on preformed biofilm (disruption)” value [6] was “did not disrupt a preformed Ab biofilm; also recorded: did not disrupt the preformed biofilm”.

Reference: US20260041683A1, “Compounds with Anti-Acinetobacter Baumannii Activity” (University of Kentucky Research Foundation, priority 2022, published 2026)
